This note sets out measurements from PubChem BioAssay AID1259407 (Chemical Carcinogenesis Research Information System (CCRIS), 2018).

The source made the active and inactive calls. No rule for the calls is given here.

The data set deals with CCRIS mutagenicity, Ames/micronucleus/aberration tests. Kind of data set: CCRIS mutagenicity studies.
Setting [1] is: Test System: AMES SALMONELLA TYPHIMURIUM, Strain/Indicator: TA97, Metabolic Activation: NONE, Method: PREINCUBATION
Setting [2] is: Test System: AMES SALMONELLA TYPHIMURIUM, Strain/Indicator: TA98, Metabolic Activation: NONE, Method: PREINCUBATION
[3] abbreviates: Test System: AMES SALMONELLA TYPHIMURIUM, Strain/Indicator: TA100, Metabolic Activation: NONE, Method: PREINCUBATION

Consider `NNC(=O)c1[nH]c2ccccc2c1N`, for which the mutagenic call was “active; positive” under setting [1]; “inactive; negative” (Test System: AMES SALMONELLA TYPHIMURIUM, Strain/Indicator: TA97, Metabolic Activation: S-9 (10%), Method: PREINCUBATION); “active; positive” under setting [2]; “inactive; negative” (Test System: AMES SALMONELLA TYPHIMURIUM, Strain/Indicator: TA98, Metabolic Activation: S-9 (10%), Method: PREINCUBATION); “inactive; negative” under setting [3]; “inactive; negative” (Test System: AMES SALMONELLA TYPHIMURIUM, Strain/Indicator: TA100, Metabolic Activation: S-9 (10%), Method: PREINCUBATION). The mutagenic call by setting is: (Test System: AMES SALMONELLA TYPHIMURIUM, Strain/Indicator: TA102, Metabolic Activation: NONE, Method: PREINCUBATION) “inactive; negative”; (Test System: AMES SALMONELLA TYPHIMURIUM, Strain/Indicator: TA102, Metabolic Activation: S-9 (10%), Method: PREINCUBATION) “inactive; negative”.
For `CNCCCN1c2ccccc2CCc2ccccc21`, the mutagenic call (Test System: AMES SALMONELLA TYPHIMURIUM, Strain/Indicator: TA98, Metabolic Activation: NONE, Method: STANDARD PLATE) was “inactive; negative”; the mutagenic call (Test System: AMES SALMONELLA TYPHIMURIUM, Strain/Indicator: TA98, Metabolic Activation: RAT, LIVER, S-9, AROCLOR 1254, Method: STANDARD PLATE) is “inactive; negative”; the mutagenic call (Test System: AMES SALMONELLA TYPHIMURIUM, Strain/Indicator: TA100, Metabolic Activation: NONE, Method: STANDARD PLATE) was “inactive; negative”; the mutagenic call (Test System: AMES SALMONELLA TYPHIMURIUM, Strain/Indicator: TA100, Metabolic Activation: RAT, LIVER, S-9, AROCLOR 1254, Method: STANDARD PLATE) was “inactive; negative”; the mutagenic call (Test System: AMES SALMONELLA TYPHIMURIUM, Strain/Indicator: TA1535, Metabolic Activation: NONE, Method: STANDARD PLATE) is “inactive; negative”; the mutagenic call (Test System: AMES SALMONELLA TYPHIMURIUM, Strain/Indicator: TA1535, Metabolic Activation: RAT, LIVER, S-9, AROCLOR 1254, Method: STANDARD PLATE) was “inactive; negative”. Moreover, the mutagenic call by setting is: (Test System: AMES SALMONELLA TYPHIMURIUM, Strain/Indicator: TA1537, Metabolic Activation: NONE, Method: STANDARD PLATE) “inactive; negative”; (Test System: AMES SALMONELLA TYPHIMURIUM, Strain/Indicator: TA1537, Metabolic Activation: RAT, LIVER, S-9, AROCLOR 1254, Method: STANDARD PLATE) “inactive; negative”.
Turning to `O=Cc1ccccc1Cl`, the mutagenic call runs as follows: (Test System: AMES SALMONELLA TYPHIMURIUM, Strain/Indicator: TA97, Metabolic Activation: HAMSTER, LIVER, S-9, AROCLOR 1254 (10%), Method: PREINCUBATION) “inactive; negative”; (Test System: AMES SALMONELLA TYPHIMURIUM, Strain/Indicator: TA97, Metabolic Activation: HAMSTER, LIVER, S-9, AROCLOR 1254 (30%), Method: PREINCUBATION) “inactive; negative”; under setting [1], “inactive; negative”; (Test System: AMES SALMONELLA TYPHIMURIUM, Strain/Indicator: TA97, Metabolic Activation: RAT, LIVER, S-9, AROCLOR 1254 (10%), Method: PREINCUBATION) “inactive; negative”; (Test System: AMES SALMONELLA TYPHIMURIUM, Strain/Indicator: TA97, Metabolic Activation: RAT, LIVER, S-9, AROCLOR 1254 (30%), Method: PREINCUBATION) “inactive; negative”; (Test System: AMES SALMONELLA TYPHIMURIUM, Strain/Indicator: TA98, Metabolic Activation: HAMSTER, LIVER, S-9, AROCLOR 1254 (10%), Method: PREINCUBATION) “inactive; negative”. Further, the mutagenic call runs as follows: (Test System: AMES SALMONELLA TYPHIMURIUM, Strain/Indicator: TA98, Metabolic Activation: HAMSTER, LIVER, S-9, AROCLOR 1254 (30%), Method: PREINCUBATION) “inactive; negative”; under setting [2], “inactive; negative”; (Test System: AMES SALMONELLA TYPHIMURIUM, Strain/Indicator: TA98, Metabolic Activation: RAT LIVER S-9, PCB, Method: PREINCUBATION) “inactive; negative”; (Test System: AMES SALMONELLA TYPHIMURIUM, Strain/Indicator: TA98, Metabolic Activation: RAT, LIVER, S-9, AROCLOR 1254 (10%), Method: PREINCUBATION) “inactive; negative”; (Test System: AMES SALMONELLA TYPHIMURIUM, Strain/Indicator: TA98, Metabolic Activation: RAT, LIVER, S-9, AROCLOR 1254 (30%), Method: PREINCUBATION) “inactive; negative”; (Test System: AMES SALMONELLA TYPHIMURIUM, Strain/Indicator: TA100, Metabolic Activation: HAMSTER, LIVER, S-9, AROCLOR 1254 (10%), Method: PREINCUBATION) “inactive; negative”. Moreover, the mutagenic call runs as follows: (Test System: AMES SALMONELLA TYPHIMURIUM, Strain/Indicator: TA100, Metabolic Activation: HAMSTER, LIVER, S-9, AROCLOR 1254 (30%), Method: PREINCUBATION) “inactive; negative”; under setting [3], “inactive; negative”; (Test System: AMES SALMONELLA TYPHIMURIUM, Strain/Indicator: TA100, Metabolic Activation: RAT LIVER S-9, PCB, Method: PREINCUBATION) “inactive; negative”; (Test System: AMES SALMONELLA TYPHIMURIUM, Strain/Indicator: TA100, Metabolic Activation: RAT, LIVER, S-9, AROCLOR 1254 (10%), Method: PREINCUBATION) “inactive; negative”; (Test System: AMES SALMONELLA TYPHIMURIUM, Strain/Indicator: TA100, Metabolic Activation: RAT, LIVER, S-9, AROCLOR 1254 (30%), Method: PREINCUBATION) “inactive; negative”; (Test System: AMES SALMONELLA TYPHIMURIUM, Strain/Indicator: TA104, Metabolic Activation: NONE, Method: PREINCUBATION) “inactive; negative”. In addition, the mutagenic call was “inactive; negative” (Test System: AMES SALMONELLA TYPHIMURIUM, Strain/Indicator: TA104, Metabolic Activation: RAT LIVER S-9, PCB, Method: PREINCUBATION); “inactive; negative” (Test System: AMES SALMONELLA TYPHIMURIUM, Strain/Indicator: TA1535, Metabolic Activation: HAMSTER, LIVER, S-9, AROCLOR 1254 (10%), Method: PREINCUBATION); “inactive; negative” (Test System: AMES SALMONELLA TYPHIMURIUM, Strain/Indicator: TA1535, Metabolic Activation: HAMSTER, LIVER, S-9, AROCLOR 1254 (30%), Method: PREINCUBATION); “inactive; negative” (Test System: AMES SALMONELLA TYPHIMURIUM, Strain/Indicator: TA1535, Metabolic Activation: NONE, Method: PREINCUBATION); “inactive; negative” (Test System: AMES SALMONELLA TYPHIMURIUM, Strain/Indicator: TA1535, Metabolic Activation: RAT, LIVER, S-9, AROCLOR 1254 (10%), Method: PREINCUBATION); “inactive; negative” (Test System: AMES SALMONELLA TYPHIMURIUM, Strain/Indicator: TA1535, Metabolic Activation: RAT, LIVER, S-9, AROCLOR 1254 (30%), Method: PREINCUBATION). Further, the mutagenic call (Test System: AMES SALMONELLA TYPHIMURIUM, Strain/Indicator: TA1537, Metabolic Activation: HAMSTER, LIVER, S-9, AROCLOR 1254 (30%), Method: PREINCUBATION) is “inactive; negative”; the mutagenic call (Test System: AMES SALMONELLA TYPHIMURIUM, Strain/Indicator: TA1537, Metabolic Activation: NONE, Method: PREINCUBATION) is “inactive; negative”; the mutagenic call (Test System: AMES SALMONELLA TYPHIMURIUM, Strain/Indicator: TA1537, Metabolic Activation: RAT, LIVER, S-9, AROCLOR 1254 (30%), Method: PREINCUBATION) was “inactive; negative”; the mutagenic call (Test System: E.COLI, Strain/Indicator: WP2 UVRA, Metabolic Activation: RAT LIVER S-9, PCB, Method: PREINCUBATION) is “inactive; negative”.
